Test results as given in patent US9382257B2, “Substituted pyrrolo[2,3-b]pyrazines as serine/threonine kinase inhibitors” (Genentech, Inc., priority 2002, dated 2016).

Tests used:
[1] = target: T1, human ERK-2 (Mitogen Activated Kinase 1) (Homo sapiens, UniProt P28482); test: ERK-2 Enzymatic Assay (Example 2); assay type: biochemical; conditions: Omnia peptide S/T17, 25 μM ATP, read-out: ERK Inhibition IC50
T1 construct: n-terminal 6-His fusion protein in E. coli and corresponding to aa 8-360; 6-His (N); made in house; host or cells: E. coli
Experimental: Compounds were tested in an enzymatic assay using human ERK-2 (Mitogen Activated Kinase 1), recombinantly expressed as an n-terminal 6-His fusion protein in E. coli and corresponding to aa 8-360. The substrate used was the fluorescent Omnia peptide S/T17 (Invitrogen of Carlsbad, Calif.; Cat. KNZ1171C). Test compounds were diluted in DMSO in 3-fold serial dilutions at 100× final concentrations. […] The assay was run at ambient temperature in a white 384-well polypropylene plate (Nunc, Inc of Naperville, Ill.; Cat. 267462) collecting data every 50 seconds for approximately 30 minutes on an Envision plate reader (PerkinElmer, Inc. of Waltham, Mass.); Excitation 340 nm/Emission 495 nm. The data collected from each well was fit to a straight line and the resulting rates were used to calculate percent of control. Percent of control was plotted against compound concentration and IC50 values were determined using a four-parameter fit. Representative date is in TABLE 2 (infra).

[2] = tested on: PMA-stimulated P90RSK(Ser380) phosphorylation in HepG2 cells; test: Cellular P90RSK(Ser380) Phosphorylation Assay (Example 4); assay type: cell-based; conditions: Homo sapiens, 1.5 hour compound incubation, PMA 100 ng/mL, normalized to GAPDH, read-out: RSK Inhibition IC50
Experimental: Cellular P90RSK(Ser380) Phosphorylation Assay
Inhibition of PMA-stimulated P90RSK(Ser380) phosphorylation was determined by the following in vitro cellular mechanistic assay, which comprises incubating cells with a compound for 1.5 hours and quantifying fluorescent pP90RSK(Ser380) signal on fixed cells and normalizing to GAPDH signal.
Materials and Methods: HepG2 cells were obtained from ATCC and grown in DMEM supplemented with 10% fetal bovine serum. Cells were plated in 96-well plates at 35,000 cells/well and allowed to attach overnight at 37° C./5% CO2. Diluted compounds were then added at a final concentration of 0.5% DMSO. After 1.5 hour compound incubation, cells were stimulated with the addition of PMA (phorbol 12-myristate 13-acetate) at a final concentration of 100 ng/mL; the PMA stimulation was a 30-minute incubation at 37° C./5% CO2. After the 30-minute PMA stimulation, cells were washed with PBS and fixed in 3.7% formaldehyde in PBS at room temperature for 15-20 minutes. This was followed by another wash in PBS and then permeabilization in 100% MeOH at room temperature for 10-15 minutes. Following the permeabilization incubation, cells were washed in PBS/0.05% Tween-20, followed by a block in Odyssey blocking buffer (LI-COR Biosciences) for at least 1 hour. Antibodies to phosphorylated P90RSK(Ser380) (Cell Signaling #9335, rabbit monoclonal) and GAPDH (Fitzgerald 10R-G109a, mouse monoclonal) were added to the cells and incubated overnight at 4° C. pP90RSK(Ser380) antibody was used at a 1:250 dilution; GAPDH was used at a 1:10,000 dilution. After washing with PBS/0.05% Tween-20, the cells were incubated with fluorescently-labeled secondary antibodies (Anti-rabbit-Alexa Flour680, Invitrogen Cat#A21109; Anti-mouse-IRDye800CW, Rockland Inc. Cat#610-131-121) for 1 hour. Both secondary antibodies were used at a 1:1000 dilution. Cells were then washed and analyzed for fluorescence at both wavelengths using the Odyssey Infrared Imaging System (LI-COR Biosciences). Phosphorylated P90RSK(Ser380) signal was normalized to GAPDH signal. Representative date is in TABLE 2 (infra).

T1 sequence (P28482 8-360): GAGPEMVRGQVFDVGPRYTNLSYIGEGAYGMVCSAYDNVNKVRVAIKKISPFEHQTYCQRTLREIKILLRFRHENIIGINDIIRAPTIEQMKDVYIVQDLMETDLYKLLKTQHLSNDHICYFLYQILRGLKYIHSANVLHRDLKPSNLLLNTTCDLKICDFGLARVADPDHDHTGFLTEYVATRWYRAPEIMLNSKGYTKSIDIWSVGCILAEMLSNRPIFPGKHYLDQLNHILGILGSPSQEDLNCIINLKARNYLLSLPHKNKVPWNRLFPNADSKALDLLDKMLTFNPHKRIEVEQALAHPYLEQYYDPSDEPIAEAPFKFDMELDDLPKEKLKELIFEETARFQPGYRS

Row | Compound | IC50 [1] | IC50 [2]
1 | Cc1n[nH]cc1-c1cnc2[nH]cc(-c3cnn(CCc4ccc(C(F)(F)F)cc4)c3)c2n1 [I-18, 2-(3-methyl-1H-pyrazol-4-yl)-7-{1-[2-(4-trifluoromethyl-phenyl)-ethyl]-1H-pyrazol-4-yl}-5H-pyrrolo[2,3-b]pyrazine] | 44.4 nM | ≥ 50000 nM
2 | Cc1[nH]ncc1-c1cnc2[nH]cc(-c3ccc(NCc4ccccc4)nc3)c2n1 [II-7, benzyl-{5-[2-(5-methyl-1H-pyrazol-4-yl)-5H-pyrrolo[2,3-b]pyrazin-7-yl]-pyridin-2-yl}-amine] | 29.9 nM | 5700 nM
3 | COc1ccc(Cn2cc(-c3c[nH]c4ncc(-c5cn[nH]c5C)nc34)cn2)cc1F [I-7, 7-[1-(3-fluoro-4-methoxy-benzyl)-1H-pyrazol-4-yl]-2-(5-methyl-1H-pyrazol-4-yl)-5H-pyrrolo[2,3-b]pyrazine] | 1.89 nM | 340 nM
4 | Cc1nc(C(=O)NCc2cncc(-c3c[nH]c4ncc(-c5cn[nH]c5)nc34)c2)c(C)o1 [II-5, 2,5-dimethyl-oxazole-4-carboxylic acid {5-[2-(1H-pyrazol-4-yl)-5H-pyrrolo[2,3-b]pyrazin-7-yl]-pyridin-3-ylmethyl}-amide] | 218 nM | ≥ 50000 nM
5 | Fc1cccc(Cn2cc(-c3c[nH]c4ncc(-c5cn[nH]c5)nc34)cn2)c1 [I-3, 7-[1-(3-fluoro-benzyl)-1H-pyrazol-4-yl]-2-(1H-pyrazol-4-yl)-5H-pyrrolo[2,3-b]pyrazine] | 2.75 nM | 403 nM
6 | Cc1[nH]ncc1-c1cnc2[nH]cc(-c3cnn([C@@H](C)c4ccccc4Cl)c3)c2n1 [I-9, 7-{1-[(S)-1-(2-chloro-phenyl)-ethyl]-1H-pyrazol-4-yl}-2-(5-methyl-1H-pyrazol-4-yl)-5H-pyrrolo[2,3-b]pyrazine] | 2.8 nM | 299 nM
7 | O=C(NCc1cncc(-c2c[nH]c3ncc(-c4cn[nH]c4)nc23)c1)c1ccc(F)cc1 [II-3, 4-fluoro-N-{5-[2-(1H-pyrazol-4-yl)-5H-pyrrolo[2,3-b]pyrazin-7-yl]-pyridin-3-ylmethyl}-benzamide] | – | 1600 nM
8 | c1ccc(Cn2cc(-c3c[nH]c4ncc(-c5ccncc5)nc34)cn2)cc1 [I-21, 7-(1-benzyl-1H-pyrazol-4-yl)-2-(pyridin-4-yl)-5H-pyrrolo[2,3-b]pyrazine] | 6.9 nM | 1300 nM
9 | Cc1[nH]ncc1-c1cnc2[nH]cc(-c3cnn(Cc4cccc5cccnc45)c3)c2n1 [I-15, 8-{4-[2-(5-methyl-1H-pyrazol-4-yl)-5H-pyrrolo[2,3-b]pyrazin-7-yl]-pyrazol-1-ylmethyl}-quinoline] | 14 nM | 651 nM
10 | Cc1[nH]ncc1-c1cnc2[nH]cc(-c3cnn(Cc4ccccc4OC(F)F)c3)c2n1 [I-8, 7-[1-(2-difluoromethoxy-benzyl)-1H-pyrazol-4-yl]-2-(5-methyl-1H-pyrazol-4-yl)-5H-pyrrolo[2,3-b]pyrazine] | 2.5 nM | 191 nM
11 | Cc1[nH]ncc1-c1cnc2[nH]cc(-c3ccc(OCC4CC4)nc3)c2n1 [II-8, 7-(6-cyclopropylmethoxy-pyridin-3-yl)-2-(5-methyl-1H-pyrazol-4-yl)-5H-pyrrolo[2,3-b]pyrazine] | 46.7 nM | 5900 nM
12 | Cc1[nH]ncc1-c1cnc2[nH]cc(-c3cnn(Cc4c(F)cccc4Cl)c3)c2n1 [I-6, 7-[1-(2-chloro-6-fluoro-benzyl)-1H-pyrazol-4-yl]-2-(5-methyl-1H-pyrazol-4-yl)-5H-pyrrolo[2,3-b]pyrazine] | 1.84 nM | 214 nM
13 | Cc1n[nH]c(C)c1-c1cnc2[nH]cc(-c3cnn(Cc4cccc(F)c4)c3)c2n1 [I-10, 2-(3,5-dimethyl-1H-pyrazol-4-yl)-7-[1-(3-fluoro-benzyl)-1H-pyrazol-4-yl]-5H-pyrrolo[2,3-b]pyrazine] | 2.7 nM | 387 nM
14 | Cn1nccc1C(=O)NCc1cncc(-c2c[nH]c3ncc(-c4cn[nH]c4)nc23)c1 [II-9, 2-methyl-2H-pyrazole-3-carboxylic acid {5-[2-(1H-pyrazol-4-yl)-5H-pyrrolo[2,3-b]pyrazin-7-yl]-pyridin-3-ylmethyl}-amide] | 144 nM | ≥ 50000 nM
15 | Cc1[nH]ncc1-c1cnc2[nH]cc(-c3cnn(Cc4ccc(F)cc4F)c3)c2n1 [I-1, 7-[1-(2,4-difluoro-benzyl)-1H-pyrazol-4-yl]-2-(5-methyl-1H-pyrazol-4-yl)-5H-pyrrolo[2,3-b]pyrazine] | 1.23 nM | 242 nM
16 | Cc1[nH]ncc1-c1cnc2[nH]cc(-c3cnn(C(C)c4ccccc4Cl)c3)c2n1 (stereo not drawn) [I-25, 7-{1-[1-(2-chloro-phenyl)-ethyl]-1H-pyrazol-4-yl}-2-(5-methyl-1H-pyrazol-4-yl)-5H-pyrrolo[2,3-b]pyrazine] | 2.2 nM | 200 nM
17 | COc1cccc(F)c1Cn1cc(-c2c[nH]c3ncc(-c4cn[nH]c4C)nc23)cn1 [I-26] | 3.4 nM | 518 nM
18 | Cc1cc(C(=O)NCc2cncc(-c3c[nH]c4ncc(-c5cn[nH]c5)nc34)c2)no1 [II-4] | 198 nM | 3700 nM
19 | Cc1[nH]ncc1-c1cnc2[nH]cc(-c3cnn(Cc4ccccc4[N+](=O)[O-])c3)c2n1 [I-5, 2-(5-methyl-1H-pyrazol-4-yl)-7-[1-(2-nitro-benzyl)-1H-pyrazol-4-yl]-5H-pyrrolo[2,3-b]pyrazine] | 1.5 nM | 97.2 nM
20 | Cc1[nH]ncc1-c1cnc2[nH]cc(-c3ccc(OCCN4CCOCC4)nc3)c2n1 [II-2, 2-(5-methyl-1H-pyrazol-4-yl)-7-[6-(2-morpholin-4-yl-ethoxy)-pyridin-3-yl]-5H-pyrrolo[2,3-b]pyrazine] | 30.1 nM | 5700 nM
21 | Fc1cccc(Cn2cc(-c3c[nH]c4ncc(-c5ccncc5)nc34)cn2)c1 [I-11, 7-[1-(3-fluoro-benzyl)-1H-pyrazol-4-yl]-2-pyridin-4-yl-5H-pyrrolo[2,3-b]pyrazine] | 2.77 nM | 501 nM
22 | Cc1[nH]ncc1-c1cnc2[nH]cc(-c3cnn(Cc4ccc(F)c(Cl)c4)c3)c2n1 [I-2, 7-[1-(3-chloro-4-fluoro-benzyl)-1H-pyrazol-4-yl]-2-(5-methyl-1H-pyrazol-4-yl)-5H-pyrrolo[2,3-b]pyrazine] | 2.36 nM | 276 nM
23 | Cc1[nH]ncc1-c1cnc2[nH]cc(-c3cnn(Cc4ccccc4C#N)c3)c2n1 [I-4, 2-{4-[2-(5-methyl-1H-pyrazol-4-yl)-5H-pyrrolo[2,3-b]pyrazin-7-yl]-pyrazol-1-ylmethyl}-benzonitrile] | 1.3 nM | 202 nM
24 | Cc1[nH]ncc1-c1cnc2[nH]cc(-c3cnn(Cc4cc(F)ccc4Cl)c3)c2n1 [I-24, 7-[1-(2-chloro-5-fluoro-benzyl)-1H-pyrazol-4-yl]-2-(5-methyl-1H-pyrazol-4-yl)-5H-pyrrolo[2,3-b]pyrazine] | 2.02 nM | 371 nM
25 | Cc1n[nH]cc1-c1cnc2[nH]cc(-c3cnn(C(C)(C)c4ccccc4)c3)c2n1 [I-17, 7-[1-(1-methyl-1-phenyl-ethyl)-1H-pyrazol-4-yl]-2-(3-methyl-1H-pyrazol-4-yl)-5H-pyrrolo[2,3-b]pyrazine] | 36 nM | 2300 nM
26 | Cc1[nH]ncc1-c1cnc2[nH]cc(-c3cnn(Cc4cc(F)ccc4C#N)c3)c2n1 [I-27, 4-fluoro-2-{4-[2-(5-methyl-1H-pyrazol-4-yl)-5H-pyrrolo[2,3-b]pyrazin-7-yl]-pyrazol-1-ylmethyl}-benzonitrile] | 24.8 nM | 2000 nM
